Laboratory results from the supplement of paper PMC10307832.

Assays:
Assay in all cases: relative viability (nuclei count vs DMSO), 5 days (fraction); higher = more cells survive
DM3189 + Bortezomib = compound: C1CN(CCN1)C2=CC=C(C=C2)C3=CN4C(=C(C=N4)C5=CC=NC6=CC=CC=C56)N=C3 [DM3189] + CC(C)C[C@H](NC(=O)[C@H](Cc1ccccc1)NC(=O)c1cnccn1)B(O)O [Bortezomib] (partner 0.002 µM)
Method in brief: (§1)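 Relative viability equals treated-well nuclei counts divided by vehicle-well nuclei counts. Counts came from 4× images of lung cancer cell lines grown in 1536-well plates for 5 days after pin-tool dosing on the day after seeding. Dosing used one drug alone or a fixed anchor-drug dose plus five library-drug doses (not always all listed) in √10 steps, and values are medians of duplicate plates.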

DM3189 + Luminespib = compound: C1CN(CCN1)C2=CC=C(C=C2)C3=CN4C(=C(C=N4)C5=CC=NC6=CC=CC=C56)N=C3 [DM3189] + CCNC(=O)c1noc(-c2cc(C(C)C)c(O)cc2O)c1-c1ccc(CN2CCOCC2)cc1 [Luminespib] (partner 0.01 µM)
Method in brief: as §1

DM3189 + Foretinib = compound: C1CN(CCN1)C2=CC=C(C=C2)C3=CN4C(=C(C=N4)C5=CC=NC6=CC=CC=C56)N=C3 [DM3189] + COc1cc2c(Oc3ccc(NC(=O)C4(C(=O)Nc5ccc(F)cc5)CC4)cc3F)ccnc2cc1OCCCN1CCOCC1 [Foretinib] (partner 0.25 µM)
Method in brief: as §1

DM3189 + Tozasertib = compound: C1CN(CCN1)C2=CC=C(C=C2)C3=CN4C(=C(C=N4)C5=CC=NC6=CC=CC=C56)N=C3 [DM3189] + Cc1cc(Nc2cc(N3CCN(C)CC3)nc(Sc3ccc(NC(=O)C4CC4)cc3)n2)n[nH]1 [Tozasertib] (partner 0.1 µM)
Method in brief: as §1

DM3189 + Vorinostat = compound: C1CN(CCN1)C2=CC=C(C=C2)C3=CN4C(=C(C=N4)C5=CC=NC6=CC=CC=C56)N=C3 [DM3189] + O=C(CCCCCCC(=O)Nc1ccccc1)NO [Vorinostat] (partner 1 µM)
Method in brief: as §1

| Cell Line | relative viability (DM3189 + Bortezomib; first compound 0.08 µM) | relative viability (DM3189 + Bortezomib; first compound 0.253 µM) | relative viability (DM3189 + Bortezomib; first compound 0.8 µM) | relative viability (DM3189 + Bortezomib; first compound 2.53 µM) | relative viability (DM3189 + Luminespib; first compound 0.08 µM) | relative viability (DM3189 + Luminespib; first compound 0.253 µM) | relative viability (DM3189 + Luminespib; first compound 0.8 µM) | relative viability (DM3189 + Luminespib; first compound 2.53 µM) | relative viability (DM3189 + Foretinib; first compound 0.08 µM) | relative viability (DM3189 + Foretinib; first compound 0.253 µM) | relative viability (DM3189 + Foretinib; first compound 0.8 µM) | relative viability (DM3189 + Foretinib; first compound 2.53 µM) | relative viability (DM3189 + Tozasertib; first compound 0.08 µM) | relative viability (DM3189 + Tozasertib; first compound 0.253 µM) | relative viability (DM3189 + Tozasertib; first compound 0.8 µM) | relative viability (DM3189 + Tozasertib; first compound 2.53 µM) | relative viability (DM3189 + Vorinostat; first compound 0.08 µM) | relative viability (DM3189 + Vorinostat; first compound 0.253 µM) | relative viability (DM3189 + Vorinostat; first compound 0.8 µM) | relative viability (DM3189 + Vorinostat; first compound 2.53 µM) |
| --- | --- | --- | --- | --- | --- | --- | --- | --- | --- | --- | --- | --- | --- | --- | --- | --- | --- | --- | --- | --- |
| CAL-12T | 1.27 | 0.931 | 0.907 | 0.958 | 0.375 | 0.499 | 0.454 | 0.217 | 1.2 | 1.07 | 1.13 | 1.12 | 0.318 | 0.234 | 0.327 | 0.403 | 0.683 | 0.785 | 0.878 | 0.743 |
| COR-L23 | 0.83 | 1.02 | 0.908 | 0.746 | 1.12 | 0.658 | 0.562 | 0.521 | 1.12 | 0.844 | 0.828 | 0.993 | 0.19 | 0.196 | 0.147 | 0.187 | 0.454 | 0.537 | 0.387 | 0.37 |
| COR-L 105 | 1.38 | 0.771 | 0.795 | 0.322 | 0.812 | 0.83 | 0.705 | 0.778 | 1.22 | 1.23 | 1.06 | 1.17 | 0.434 | 0.371 | 0.32 | 0.358 | 0.867 | 0.73 | 0.835 | 0.803 |
| ChaGo-K-1 | 1.32 | 0.882 | 1.01 | 0.757 | 0.643 | 0.52 | 0.492 | 0.676 | 1.07 | 0.903 | 0.858 | 0.976 | 0.235 | 0.228 | 0.222 | 0.233 | 0.872 | 0.771 | 0.703 | 0.746 |
